From patent US9550793B2, “Spirocyclic compounds, compositions and medicinal applications thereof” (Advinus Therapeutics Limited, priority 2012, dated 2017)

Key:
[1] = molecular target: T1, recombinant human DGAT1 (hDGAT1) (Homo sapiens, UniProt O75907); assay: Membrane-based recombinant hDGAT1 inhibitory activity using LCMS method (Method A); assay type: biochemical; settings: Sf9 membranes expressing hDGAT1
T1 construct: host or cells: Sf9 insect cells (baculovirus expression system), used as membrane preparation
T1 sequence (O75907 1-488): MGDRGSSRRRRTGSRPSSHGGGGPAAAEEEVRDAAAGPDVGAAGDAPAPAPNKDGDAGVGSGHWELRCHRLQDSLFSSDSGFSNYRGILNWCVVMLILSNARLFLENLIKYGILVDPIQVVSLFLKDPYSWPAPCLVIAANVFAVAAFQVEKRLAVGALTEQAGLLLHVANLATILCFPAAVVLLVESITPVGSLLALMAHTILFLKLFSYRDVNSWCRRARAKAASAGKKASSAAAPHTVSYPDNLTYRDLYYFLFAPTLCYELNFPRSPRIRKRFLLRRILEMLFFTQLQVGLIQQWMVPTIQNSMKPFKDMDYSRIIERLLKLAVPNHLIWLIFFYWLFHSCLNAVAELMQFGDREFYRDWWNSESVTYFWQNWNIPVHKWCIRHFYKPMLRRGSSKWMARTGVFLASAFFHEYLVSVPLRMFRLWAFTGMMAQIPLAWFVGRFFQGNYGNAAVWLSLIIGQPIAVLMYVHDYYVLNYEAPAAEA

hDGAT1 = molecular target: T2, hDGAT1 (Homo sapiens, UniProt O75907); assay: Cell based hDGAT1 inhibitory activity in HEK293H cells (13C-oleic acid to triolein, LC-MS)
T2 construct: endogenous in cells; host or cells: HEK293H cells
T2 sequence (O75907 1-488): T1 sequence (O75907 1-488)
Method: Measurement of Cell Based hDGAT1 Inhibitory Activity:
HEK293H cells were seeded in a 96-well poly-D-lysine plate at a density of 80000 cells per well. Following day, cells were washed with assay buffer-DMEM high glucose supplemented with 25 mM Hepes (pH7.5) carrying 0.25% fatty acid-free bovine serum. The cells were starved in assay buffer at 37° C./5% CO2 followed by removal of media and treatment with appropriate concentrations of the test compound at a final concentration of 0.2% DMSO for 20 min. 13C-Oleic acid pre-complexed with BSA (300 uM) was added and cells were incubated further at […]/5% CO2 for 120 min. The supernatant was removed and the cells were allowed to air dry briefly. The extraction solvent (90% isopropyl alcohol and 10% tetrahydrofuran with 20 nM of the internal standard [1,3-di-heptadecanoyl-2-(10Z-heptadecanoyl)-sn-glycerol-d5) was added to the cells, and allowed to shake at room temperature for 15 min. The extract was then transferred to glass vials for LC-MS analysis. An Applied Biosystems API3200 LC/MS system interfaced with a triplequadrupole mass spectrophotometer through a Turbo ion spray source was employed for the LC separation of the analytes using a Hi-Purity ADVANCE column eluted with 10 mM ammonium formate in IPA-H2O (80:20) at a flow rate of 0.4 mL/min. A characteristic in-source fragment ion m/z 639.7 formed from the precursor ion ^13C-54-triolein (m/z 956.8, ammonium adduct) at a collision energy of 30 and declustering potential 70 was monitored. IC50 values of the compounds were determined based on percent inhibition calculated on the basis of area ratio of product (TG) and internal standard (IS).

[2] = molecular target: T1, recombinant human DGAT1 (hDGAT1); assay: Membrane-based recombinant hDGAT1 inhibitory activity using radiometry method (Method B); assay type: biochemical; settings: values marked *: Method B (radiometry); Sf9 membranes expressing hDGAT1
Method: Measurement of Membrane-Based Recombinant hDGAT1 Inhibitory Activity Using Radiometry Method (Method B):
The determination of recombinant human DGAT1 (hDGAT1) activity was carried out using a Radiometry based assay system based on literature report [European Journal of Medicinal Chemistry (2012), August; 54:324-42]. In brief, baculovirus expression system (Sf9) membranes expressing hDGAT1 were employed for the membrane based assay.
Radiometry hDGAT1 assays were performed using 1 μg of the hDGAT1, pre-incubated with 100 μl of the assay buffer [100 mM Tris-HCl (pH 7.5), 250 mM sucrose, and 1.25 mg/ml fatty acid free BSA] containing a known concentration of the inhibitor and supplemented with 300 μM of 1,2-dioleoylglycerol. The hDGAT1 reaction was initiated following an addition of 16.8 nCi of [14C]-oleoyl CoA. The reaction was terminated after 30 minutes of incubation at 37° C. using 300 μl alkaline ethanol stop solution mix (AESSM) [12.5% of 100% non-denatured ethanol, 10% deionized water, 2.5% NaOH, and 75% stop solution (78.4% isopropanol, 19.6% n-heptane, 2% deionized water)]. The ^14C triglyceride formed in this reaction was extracted using 600 μl of heptane. 250 μl of this extracted heptane was added to scintillation fluid and subjected to radioactivity measurement.

Row | Structure (SMILES) | IC50 [1] [nM] | IC50 (hDGAT1) [nM] | IC50 [2] [nM]
1 | O=C(Nc1ccc(N2CCC3(CC2)CC3C(=O)O)nc1)c1nnc(Nc2ccc(F)c(F)c2)o1 (stereo not drawn) [Example B19, 6-[5-[[5-(3,4-difluoroanilino)-1,3,4-oxadiazole-2-carbonyl]amino]-2-pyridyl]-6-azaspiro [2.5] octane-2-carboxylic acid] | 59 | 68 | –
2 | O=C(Nc1ccc(N2CCC3(CC2)CC3C(=O)O)nc1)c1nnc(Nc2ccc(C(F)(F)F)cc2)o1 (stereo not drawn) [Example B20] | 87 | 62 | –
3 | O=C(Nc1ccc(N2CCCC3(CC3C(=O)O)C2)nc1)c1nnc(Nc2ccc(F)c(F)c2)o1 (stereo not drawn) [Example B22, 7-[5-[[5-(3,4-difluoroanilino)-1,3,4-oxadiazole-2-carbonyl]amino]-2-pyridyl]-7-azaspiro [2.5] octane-2-carboxylic acid] | 53 | 465 | –
4 | O=C(Nc1ccc([C@H]2CC[C@@]3(CC2)CC3C(=O)O)nc1)c1nnc(Nc2ccccc2)o1 (stereo partly drawn) [Example B23, Cis-6-[5-[(5-anilino-1,3,4-oxadiazole-2-carbonyl)amino]-2-pyridyl] spiro [2.5] octane-2-carboxylic acid] | 7.6 | 8.8 | –
5 | O=C(Nc1ccc([C@H]2CC[C@@]3(CC2)CC3C(=O)O)nc1)c1nnc(Nc2ccc(F)c(F)c2)o1 (stereo partly drawn) [Example B25, Cis-6-[5-[[5-(3,4-difluoroanilino)-1,3,4-oxadiazole-2-carbonyl]amino]-2-pyridyl] spiro [2.5] octane-2-carboxylic acid] | 4.5 | 20 | –
6 | O=C(Nc1ccc(N2CCC3(CC2)CC3C(=O)O)cc1)c1nnc(Nc2ccccc2)o1 (stereo not drawn) [Example B27, 6-[4-[(5-anilino-1,3,4-oxadiazole-2-carbonyl)amino]phenyl]-6-azaspiro [2.5] octane-2-carboxylic acid] | 167 | 47 | –
7 | O=C(Nc1ccc(N2CCC3(CC2)CC3C(=O)O)cc1)c1nnc(Nc2ccc(F)c(F)c2)o1 (stereo not drawn) [Example B28, 6-[4-[[5-(3,4-difluoroanilino)-1,3,4-oxadiazole-2-carbonyl]amino]phenyl]-6-azaspiro [2.5] octane-2-carboxylic acid] | 92 | 48 | –
8 | O=C(Nc1ccc(N2CCC3(CC2)CC3C(=O)O)cc1)c1nnc(Nc2ccc(F)cc2)o1 (stereo not drawn) [Example B29, 6-[4-[[5-(4-fluoroanilino)-1,3,4-oxadiazole-2-carbonyl]amino]phenyl]-6-azaspiro [2.5] octane-2-carboxylic acid] | 175 | 35 | –
9 | O=C(Nc1ccc(N2C3CCC2CC2(C3)CC2C(=O)O)nc1)c1nnc(Nc2ccc(F)c(F)c2)o1 (stereo not drawn) [Example B30, 8-[5-[[5-(3,4-difluoroanilino)-1,3,4-oxadiazole-2-carbonyl]amino]-2-pyridyl] spiro [8-azabicyclo [3.2.1]octane-3,2′-cyclopropane]-1′-carboxylic acid] | 130 | 450 | –
10 | O=C(O)CC1CC2(CCN(c3ccc(NC(=O)c4nnc(Nc5ccc(F)c(F)c5)o4)cn3)CC2)C1 [Example B32, 2-[7-[5-[[5-(3,4-difluoroanilino)-1,3,4-oxadiazole-2-carbonyl]amino]-2-pyridyl]-7-azaspiro[3.5]nonan-2-yl]acetic acid] | – | – | 6.9
11 | O=C(O)CC1CC2(CCN(c3ccc(NC(=O)c4nnc(Nc5ccccc5F)o4)cn3)CC2)C1 [Example B33, 2-[7-[5-[[5-(2-fluoroanilino)-1,3,4-oxadiazole-2-carbonyl]amino]-2-pyridyl]-7-azaspiro[3.5]nonan-2-yl]acetic acid] | – | – | 26
12 | O=C(Nc1ccc(N2CCC3(CC2)CC(C(=O)O)C3)nc1)c1nnc(Nc2ccccc2)o1 [Example B34, 7-[5-[(5-anilino-1,3,4-oxadiazole-2-carbonyl)amino]-2-pyridyl]-7-azaspiro[3.5]nonane-2-carboxylic acid] | – | – | 24
13 | O=C(Nc1ccc(N2CCC3(CC2)CC(C(=O)O)C3)nc1)c1nnc(Nc2cccc(F)c2)o1 [Example B35, 7-[5-[[5-(3-fluoroanilino)-1,3,4-oxadiazole-2-carbonyl]amino]-2-pyridyl]-7-azaspiro[3.5]nonane-2-carboxylic acid] | – | – | 19
14 | O=C(Nc1ccc(N2CCC3(CC2)CC(C(=O)O)C3)nc1)c1nnc(Nc2ccc(Cl)cc2)o1 [Example B36, 7-[5-[[5-(4-chloroanilino)-1,3,4-oxadiazole-2-carbonyl]amino]-2-pyridyl]-7-azaspiro[3.5]nonane-2-carboxylic acid] | – | – | 25
15 | O=C(Nc1ccc(N2CCC3(CC2)CC(C(=O)O)C3)nc1)c1nnc(Nc2cccc(C(F)(F)F)c2)o1 [Example B37, 7-[5-[[5-[3-(trifluoromethyl)anilino]-1,3,4-oxadiazole-2-carbonyl]amino]-2-pyridyl]-7-azaspiro[3.5]nonane-2-carboxylic acid] | – | – | 22
16 | O=C(O)CC1CC2(CCN(c3ccc(NC(=O)c4nnc(Nc5ccccc5F)o4)cc3)CC2)C1 [Example B38, 2-[7-[4-[[5-(2-fluoroanilino)-1,3,4-oxadiazole-2-carbonyl]amino]phenyl]-7-azaspiro[3.5]nonan-2-yl]acetic acid] | – | – | 50
17 | O=C(O)CC1CC2(CCN(c3ccc(NC(=O)c4nnc(Nc5ccccc5)o4)cc3)CC2)C1 [Example B39, 2-[7-[4-[(5-anilino-1,3,4-oxadiazole-2-carbonyl)amino]phenyl]-7-azaspiro[3.5]nonan-2-yl]acetic acid] | – | – | 47
18 | O=C(O)CC1CC2(CCN(c3ccc(NC(=O)c4nnc(Nc5ccc(F)c(F)c5)o4)cc3)CC2)C1 [Example B40, 2-[7-[4-[[5-(3,4-difluoroanilino)-1,3,4-oxadiazole-2-carbonyl]amino]phenyl]-7-azaspiro[3.5]nonan-2-yl]acetic acid] | – | – | 20
19 | Nc1ncnc2c1C(=O)N(c1ccc(C3CCC4(CCC(CC(=O)O)CC4)CC3)cc1)CCO2 (stereo not drawn) [Example H3, 2-[9-[4-(4-amino-5-oxo-7,8-dihydropyrimido[5,4-f][1,4]oxazepin-6-yl)phenyl]spiro[5.5]undecan-3-yl]acetic acid] | 42 | 15 | –
20 | Nc1ncnc2c1C(=O)N(c1ccc(C3CCC4(CC3)CC4C(=O)O)cc1)CCO2 (stereo not drawn) [Example I3, 6-[4-(4-amino-5-oxo-7,8-dihydropyrimido[5,4-f][1,4]oxazepin-6-yl)phenyl]spiro[2.5]octane-2-carboxylic acid] | 54 | 26 | –
21 | Nc1ncnc2c1C(=O)N(c1ccc(C3CCC4(CC3)CC4C(=O)O)cc1)CCO2 (stereo not drawn) [Example I4, 6-[4-(4-amino-5-oxo-7,8-dihydropyrimido[5,4-f][1,4]oxazepin-6-yl)phenyl]spiro[2.5]octane-2-carboxylic acid] | 94 | 35 | –
